From patent US20240316146A1, “METHODS OF REDUCING NEUROPATHY AND NEUROPATHIC SYMPTOMS AND TREATING CANCER” (Bexion Pharmaceuticals Inc., priority 2021, published 2024)
Where “and” joins values, the source holds several entries; their conditions need not be identical. Equal entries are not always repeated.

What was measured:
[1] = tested on: mouse oxaliplatin model of chemotherapy-induced neuropathy; test: Static mechanical (tactile) allodynia, von Frey filaments, Study 1; type: in vivo
Procedure: (§1) 60 adult male C57/BL6 mice (Charles River), 6-7 weeks of age, were housed in groups of 5 in Perspex cages, in a controlled environment of constant temperature and humidity (temperature: 21±1° C., light: dark cycle of 12:12 hours), with food and water available ad libitum. Animals were allowed to recover from transportation for at least one week before commencing experiments.
(§2) Static mechanical tactile allodynia: Static mechanical (tactile) allodynia was assessed by measurement of withdrawal threshold using calibrated (force; g) von-Frey monofilaments (Touch-Test Sensory Evaluator; Scientific Marketing Associates) applied to the plantar surface of the left hind-paw. The animals were placed in individual Perspex boxes on a raised metal mesh for 30-40 min before the test to habituate. A series of graduated von Frey hairs (0.07, 0.16, 0.4, 0.6 and 1 g) were applied in sequence with a protocol of 1 sec on 1 sec off repeated 10 times. Each hair was applied perpendicularly to the center of the ventral surface of the paw until it bent slightly. The force applied to the hind-paw of the animal to induce 5 responses out of 10 trials was recorded as paw withdrawal threshold (PWT) 50%.
(§3) Warm vials of BQX-350 were brought to room temperature and reconstituted with 4 mL water for injection via syringe. The vials were gently agitated and/or vortexed for 15-20 sec and allowed to sit at room temp for 5 mins. The rehydrated solution contained 2.2 mg/mL SapC (8.8 mg SapC per vial). About […] of the formulation was injected to achieve a target dose of 20 mg/kg in each mouse. Pregabalin was reconstituted in water and injected to achieve a target dose of 30 mg/kg in each mouse.
(§4) A two-way repeated measures ANOVA with ‘treatment’ as a between subjects effect, and ‘day’ as a within subjects effect was used (using GraphPad Prism version 9.0 for Windows, GraphPad Software, San Diego California USA), followed by Dunnett's multi comparisons test. Data is presented as mean±SEM.

[2] = tested on: mouse oxaliplatin model of chemotherapy-induced neuropathy; test: Thermal hypersensitivity, cold plate test 15° C., Study 1; type: in vivo
Procedure: as §1
(§5) Thermal hypersensitivity: Thermal hypersensitivity was assessed using a dynamic cold plate (Bioseb, France) set at a fixed temperature of 15° C. This method allows analysis of more integrated behaviors rather than reflex behaviors, e.g., the tail immersion test. In animal studies, thermal sensitivity is mostly evaluated based on nociceptive reaction latencies in response to a given thermal aversive stimulus. In this classical test, the temperature of the plate is fixed and remains constant: the latency to the first paw licking, jumps or withdrawal is taken as an index of nociceptive threshold. […] The results of the study are shown in Table 5 (raw data) below, Table 6 (summary) below, FIG. 4, and FIG. 5.
as §3, §4

[3] = tested on: mouse oxaliplatin model of chemotherapy-induced neuropathy; test: Static mechanical (tactile) allodynia, von Frey filaments, Study 2; type: in vivo; conditions: for PWT 50% (left hind paw Paw Withdrawal Threshold 50%): Group E Oxaliplatin/Pregabalin 30 mg/kg (days 3, 5, 7, 9), N 12; for Individual Paw Withdrawal Threshold 50% (von Frey filaments): Study 2, oxaliplatin 10 mg/kg IP day 0 (+vehicle, BXQ-350 2 mg/kg IP or pregabalin 30 mg/kg IP), individual mice
Procedure: as §2, §1
Static mechanical tactile allodynia: The same apparatus and protocol were used as for Study 1.

[4] = tested on: mouse oxaliplatin model of chemotherapy-induced neuropathy; test: Thermal hypersensitivity, cold plate test, Study 2; conditions: Group E Oxaliplatin/Pregabalin 30 mg/kg (days 3, 5, 7, 9), N 12
Procedure: as §5, §1
Thermal hypersensitivity: The same apparatus and protocol were used as for Study 1. The results of Study 2 are shown in Table 11 (raw data), Table 12 (summary), FIG. 8, and FIG. 9.

Body weights, Study 2 = type: in vivo, mouse; conditions: Group E Oxaliplatin/Pregabalin, individual mice
Description: Body Weights: The mice were weighed daily starting 1 day prior to treatment through day 9.

[5] = oxaliplatin 10 mg/kg IP day 0 (+vehicle, BXQ-350 20 mg/kg IP or pregabalin 30 mg/kg IP), Baseline, individual mice
[6] = oxaliplatin 10 mg/kg IP day 0 (+vehicle, BXQ-350 20 mg/kg IP or pregabalin 30 mg/kg IP), Day 3, individual mice
[7] = oxaliplatin 10 mg/kg IP day 0 (+vehicle, BXQ-350 20 mg/kg IP or pregabalin 30 mg/kg IP), group mean
[8] = oxaliplatin treated animals, day 3 to day 9, BXQ-350 20 mg/kg, pregabalin 30 mg/kg 2 hours before assessment
[9] = cold plate 15° C., oxaliplatin 10 mg/kg IP day 0 (+vehicle, BXQ-350 20 mg/kg IP or pregabalin 30 mg/kg IP), group mean

## CC(C)C[C@H](CN)CC(=O)O [Pregabalin]
[1]; [5]
  Individual Paw Withdrawal Threshold 50% (von Frey filaments): 0.8 g (4×) and 0.6 g (2×) and 1.0 g (2×) and 0.4 g (2×) and 0.7 g and 0.5 g
[1]; [6]
  Individual Paw Withdrawal Threshold 50% (von Frey filaments): 1.0 g (3×) and 0.6 g
[1]; [7]
  PWT 50% (g) Baseline: 0.698 g
  PWT 50% (g) D3: *0.733 g
  PWT 50% (g) D5: ***0.800 g
  PWT 50% (g) D7: **0.733 g
  PWT 50% (g) D9: ****0.883 g
[1]; [8]
  mechanical allodynia (in words): reduced mechanical allodynia
[2]; [9]
  Latency (s) Baseline: 53.629 s
  Latency (s) D 3: 49.400 s
  Latency (s) D 5: 50.000 s
  Latency (s) D 7: 47.183 s
  Latency (s) D 9: 59.300 s
[2]; [5]
  Individual latency to displaying withdrawal behaviour in the cold plate test: 52.9 s and 74.9 s and 74.7 s and 57.3 s and 48.6 s and 40.2 s and 57.5 s and 67.5 s and 38.5 s and 44.8 s and 41.3 s and 45.6 s
[2]; [6]
  Individual latency to displaying withdrawal behaviour in the cold plate test: 56.7 s and 52.4 s and 44.4 s and 62.3 s and 57.6 s and 46.9 s and 63.6 s and 40.8 s and 58.2 s and 36.5 s and 52.5 s and 20.9 s
[2]; oxaliplatin 10 mg/kg IP day 0 (+vehicle, BXQ-350 20 mg/kg IP or pregabalin 30 mg/kg IP), Day 5, individual mice
  Individual latency to displaying withdrawal behaviour in the cold plate test: 22.2 s and 43.5 s and 91.7 s and 73.6 s and 41.5 s and 39.3 s and 61.3 s and 40.1 s and 30.1 s and 42.7 s and 45.2 s and 68.8 s
[2]; oxaliplatin 10 mg/kg IP day 0 (+vehicle, BXQ-350 20 mg/kg IP or pregabalin 30 mg/kg IP), Day 7, individual mice
  Individual latency to displaying withdrawal behaviour in the cold plate test: 60.2 s and 40.3 s and 72.5 s and 98.2 s and 55.5 s and 29.3 s and 32.1 s and 35.2 s and 35.8 s and 32.5 s and 31.4 s and 43.2 s
[2]; oxaliplatin 10 mg/kg IP day 0 (+vehicle, BXQ-350 20 mg/kg IP or pregabalin 30 mg/kg IP), Day 9, individual mice
  Individual latency to displaying withdrawal behaviour in the cold plate test: 37.8 s and 71.7 s and 75.8 s and 54.0 s and 72.7 s and 34.6 s and 84.7 s and 71.5 s and 74.9 s and 42.7 s and 38.9 s and 52.3 s
[2]; [8]
  thermal (cold) sensitivity, cold plate test (in words): reduced thermal sensitivity
[3]; D3, mean (SEM)
  PWT 50% (left hind paw Paw Withdrawal Threshold 50%): ****0.933 g
[3]; D5, mean (SEM)
  PWT 50% (left hind paw Paw Withdrawal Threshold 50%): ****0.833 g
[3]; D7, mean (SEM)
  PWT 50% (left hind paw Paw Withdrawal Threshold 50%): ****0.817 g
[3]; D9, mean (SEM)
  PWT 50% (left hind paw Paw Withdrawal Threshold 50%): ****0.967 g
[3]; D −1, mean (SEM)
  PWT 50% (left hind paw Paw Withdrawal Threshold 50%): 0.697 g
[3]; D −2, mean (SEM)
  PWT 50% (left hind paw Paw Withdrawal Threshold 50%): 0.600 g
[3]; D −3, mean (SEM)
  PWT 50% (left hind paw Paw Withdrawal Threshold 50%): 0.633 g
[3]; D 3
  Individual Paw Withdrawal Threshold 50% (von Frey filaments): 1.0 g (10×) and 0.6 g (2×)
[3]; D 5
  Individual Paw Withdrawal Threshold 50% (von Frey filaments): 1.0 g (7×) and 0.6 g (5×)
[3]; D 7
  Individual Paw Withdrawal Threshold 50% (von Frey filaments): 1.0 g (7×) and 0.6 g (4×) and 0.4 g
[3]; D 9
  Individual Paw Withdrawal Threshold 50% (von Frey filaments): 1.0 g (11×) and 0.6 g
[3]; D −1
  Individual Paw Withdrawal Threshold 50% (von Frey filaments): 1.0 g (5×) and 0.6 g (4×) and 0.4 g (2×) and 0.2 g
[3]; D −2
  Individual Paw Withdrawal Threshold 50% (von Frey filaments): 0.4 g (2×) and 0.6 g (9×) and 1.0 g
[3]; D −3
  Individual Paw Withdrawal Threshold 50% (von Frey filaments): 0.6 g (8×) and 1.0 g (2×) and 0.4 g (2×)
[4]; D3, mean (SEM)
  Latency to withdrawal behaviour in the cold plate test (15° C.): ***77.083 + s
[4]; D5, mean (SEM)
  Latency to withdrawal behaviour in the cold plate test (15° C.): 31.188 + s
[4]; D7, mean (SEM)
  Latency to withdrawal behaviour in the cold plate test (15° C.): *42.792 + s
[4]; D9, mean (SEM)
  Latency to withdrawal behaviour in the cold plate test (15° C.): 42.063 + s
[4]; D −1, mean (SEM)
  Latency to withdrawal behaviour in the cold plate test (15° C.): 43.175 + s
[4]; D −2, mean (SEM)
  Latency to withdrawal behaviour in the cold plate test (15° C.): 44.725 + s
[4]; D −3, mean (SEM)
  Latency to withdrawal behaviour in the cold plate test (15° C.): 43.908 + s
Body weights, Study 2; D 0
  Individual body weights: 21.9 g and 23.6 g (2×) and 28.1 g and 23.7 g and 25.7 g (2×) and 24.9 g and 21.8 g and 26.2 g and 23.4 g and 25.1 g
Body weights, Study 2; D 1
  Individual body weights: 21.6 g and 23.0 g and 26.8 g and 22.7 g and 25.2 g and 25.1 g and 23.1 g and 24.5 g and 23.6 g and 24.8 g and 22.6 g and 24.4 g
Body weights, Study 2; D 2
  Individual body weights: 21.8 g and 23.1 g and 27.0 g and 22.7 g and 25.1 g and 25.4 g and 23.8 g and 23.6 g and 23.4 g and 25.0 g and 22.8 g and 24.3 g
Body weights, Study 2; D 3
  Individual body weights: 21.8 g and 23.0 g and 26.6 g and 22.6 g and 24.7 g and 25.5 g and 23.4 g and 22.4 g and 22.9 g and 24.8 g and 22.8 g and 24.0 g
Body weights, Study 2; D 4
  Individual body weights: 21.8 g and 23.0 g and 27.0 g and 22.3 g and 25.0 g and 24.8 g and 23.4 g and 23.5 g and 23.7 g and 24.9 g and 23.1 g and 24.0 g
Body weights, Study 2; D 5
  Individual body weights: 21.4 g and 24.0 g and 27.6 g and 22.9 g
Body weights, Study 2; D −1
  Individual body weights: 21.9 g and 23.7 g and 27.9 g and 23.2 g (2×) and 23.4 g and 25.3 g and 23.3 g and 24.5 g and 24.2 g and 25.7 g and 24.8 g
Body weights, Study 2; D −2
  Individual body weights: 21.9 g and 23.1 g and 27.6 g and 22.7 g and 25.6 g and 25.9 g and 23.3 g and 24.6 g and 23.8 g and 25.4 g and 22.8 g and 24.4 g
Body weights, Study 2; D −3
  Individual body weights: 22.0 g and 23.0 g (4×) and 28.0 g and 26.0 g (3×) and 25.0 g (2×) and 24.0 g
